The values below come from article PMC10419416, “Fighting Pseudomonas aeruginosa Infections: Antibacterial and Antibiofilm Activity of D-Q53 CecB, a Synthetic Analog of a Silkworm Natural Cecropin B Variant” (International Journal of Molecular Sciences, 2023).

The test system of data set [1] is P. aeruginosa (non-mucoid: ATCC 27853; mucoid: ATCC 25668). Further details: method as in PMID 31045339. As to conditions: planktonic forms; cited from earlier work. The source says:
(§1) We, therefore, determined the anti-Pseudomonas activity of D-Q53 CecB in comparison to the L- counterpart versus the planktonic forms of the same ATCC 27853 and ATCC 25668 strains, and a third POA1-L strain (Lausanne subline).

The test system of data set [2] is P. aeruginosa ATCC 27853 and ATCC 25668 strains. Also noted: method as in PMID 31045339. As to conditions: planktonic forms; cited from earlier work.
Description: as §1

The subject of data set [3] is T1, human neutrophil elastase.
T1 construct: purchased Merck
Put plainly: Enzymatic digestion with human neutrophil elastase, RP-HPLC. Format: in vitro ADME. As to conditions: human, isolated enzyme elastase, pH 7.5. As for the experimental part: (§2) L- and D-Q53 CecB peptides, as well as the human LL-37 peptide (Merck, Burlington, MA, USA), were dissolved in 10 mM Tris-HCl, pH 7.5, at a final concentration of 1 mg/mL. Subsequently, 120 μL of each peptide solution were incubated at 37 °C with 20 U of human leukocyte elastase (Merck) or P. aeruginosa elastase (Elastin Products Company, Owensville, MO, USA) and 5 μL of 10 mM Tris-HCl, pH 7.5. At given time intervals (30, 60, 120, and 300 min), a volume corresponding to 30 μg of each peptide was diluted in 70 μL of 1% trifluoroacetic acid (TFA) to stop the reaction. Peptide suspensions,v without any enzyme (undigested controls), were processed in parallel. Each solution was analyzed by RP-HPLC, using a Phenomenex LC C18 analytical column (300 Å, […], 250 × 4.6 mm; Phenomenex, Torrance, CA, USA) and a Widepore C18 security guard cartridge (4 × 3.0 mm; Phenomenex, Torrance, CA, USA), in a 30 min-linear Acetonitrile (ACN) gradient (from 0% to 40% for L- and D-Q53 CecB peptides; from 20% to 60% for LL-37). A Waters Alliance 2695 Separations Module connected to a 996 PDA (Waters, Milford, MA, USA) was employed for RP-HPLC.

In data set [4] the test system is trypsin. As to conditions: cited from earlier work. The source says: Recently, we characterized Q53 CecB, a natural CecB variant derived from the silkworm Bombyx mori. […] Additionally, Q53 CecB maintains an anti-Pseudomonas activity at a high saline concent ...
The test system of data set [5] is T2, P. aeruginosa elastase.
T2 construct: purchased Elastin Products Company
Briefly: Enzymatic digestion with P. aeruginosa elastase, RP-HPLC. Format: in vitro ADME. As to conditions: isolated enzyme elastase; peptide 1 mg/mL in 10 mM Tris-HCl pH 7.5, 20 U P. aeruginosa elastase, 37 °C, 30 min, RP-HPLC C18 peak integration; read-out: % of full-length peptide. The procedure:
as §2

Data set [6] has as its system P. aeruginosa ATCC 25668, ATCC 27853, and PAO1-L strains. Briefly: microbe, parasite or virus in culture. Format: cell-based, Pseudomonas aeruginosa. As to conditions: LB medium, 24 h, 37 °C, OD600; same value for all three strains; triplicate, at least three experiments. The procedure: (§3) The following strains were used: P. aeruginosa ATCC 27853, ATCC 25668, and PAO1-L (Lausanne subline). All strains were grown at 37 °C in Luria Bertani (LB) medium or in Luria Bertani Agar (LBA) plates.
(§4) The antibacterial activities of L- and D-Q53 CecB were evaluated by determining (i) the MIC and (ii) the MBC. Tobramycin (Merck) was used as an antibiotic control. (i) An overnight (ON) bacterial culture was diluted to 1 × 10^6 cells/mL in LB medium. 50 µL/well were seeded in sterile polypropylene 96-well plates (Corning, Corning, NY, USA) and added with 50 µL LB medium, containing serial dilutions of each compound (final concentrations of L- and D-Q53 CecB peptides from 1.1 to 35.2 µM; final concentrations of tobramycin from 0.26 to 17 μM; each condition in triplicate). Microbial suspensions in the growing medium (positive control) and wells with only the medium (negative controls) were processed in parallel. Plates were incubated 24 h at 37 °C with agitation (300 rpm), and the absorbance was measured at 600 nm in a microplate reader. The MIC was considered as the lowest concentration determining a delta optical density at 600 nm (ΔOD600) equal to 0 ± 0.05. The ΔOD600 was determined by subtracting the OD600 recorded at time 0 from that obtained after 24 h. Each experiment was performed at least three times. […] For each sample, 100 μL of 1:10, 1:100, and 1:1000 dilutions were plated on LBA plates, and colonies were counted after 24 h at 37 °C. […] Each experiment was performed at least twice.

Data set [7] concerns P. aeruginosa PAO1-L strain. Put plainly: microbe, parasite or virus in culture. The class given is cell-based, Pseudomonas aeruginosa. As to conditions: value between parentheses, 24 h, 37 °C, plating on LBA. The procedure: as §3, §4

No end group written: not given here.

As for “RWKIFKKIEKMGRNIRDGIVKAGPAIQVLGSAKAI-NH2 [L-Q53 CecB]”, the MIC in data set [1] was 2.2 µM; in data set [6] it was 2.20 µM. The MBC was 11 µM in data set [2] and 4.40 µM in data set [7]. The same substance gave a remaining at 5 h, 1 mg/mL in data set [3] of 0.3%. Also, in data set [4], the “antibacterial activity after trypsin treatment” value was “lost its antibacterial activity”. Also, in data set [5], the remaining at 0.5 h, 1 mg/mL was roughly 0.2%.
